Patent publication US12344610B2, “APOL1 inhibitors and methods of use” (Maze Therapeutics, Inc., priority 2022, dated 2025)

Target: T1, APOL1 G2 (Homo sapiens, UniProt O14791, DEL388-389)
T1 construct: expressed in transfected cells; host or cells: HEK293 T-REx clonal line stably expressing GCaMP6f (HEK T-REx/GCaMP6f/APOL1 G2 K6.3), doxycycline induced
T1 sequence (O14791 with tags, fused parts or gaps DEL388-389): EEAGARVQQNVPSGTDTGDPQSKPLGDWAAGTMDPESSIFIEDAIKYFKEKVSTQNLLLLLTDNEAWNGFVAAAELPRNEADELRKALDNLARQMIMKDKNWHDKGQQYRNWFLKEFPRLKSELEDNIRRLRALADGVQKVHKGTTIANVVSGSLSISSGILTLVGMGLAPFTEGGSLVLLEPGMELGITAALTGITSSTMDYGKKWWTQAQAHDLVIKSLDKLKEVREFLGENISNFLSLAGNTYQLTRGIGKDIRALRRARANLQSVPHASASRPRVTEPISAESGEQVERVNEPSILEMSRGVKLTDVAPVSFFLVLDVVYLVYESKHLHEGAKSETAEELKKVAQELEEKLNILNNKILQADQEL
Assay: APOL1-mediated calcium transport (calcium influx) assay, HEK T-REx/GCaMP6f/APOL1 G2 K6.3 cells, FLIPR TETRA
Assay type: cell-based
Settings: prevention of calcium influx; geometric mean of at least 2 assay runs; † = average of a technical replicate from a single assay run
Outline: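 A HEK293 T-REx clone stably expressing GCaMP6f had APOL1 G2 induced with doxycycline (20 ng/mL solution added) for 6 h. Cells were then washed into Ca2+-free Tyrode's buffer (pH 7.4) and preincubated with compounds (duplicate 8-point) for 10 min at room temperature. Ca2+ injection to 5 mM final produced FLIPR GCaMP fluorescence, giving AC50 for influx inhibition (geometric mean, ≥2 runs).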

C[C@]1(O)C[C@@H](n2ccc3cc(OCCN4CCC5(CC4)C(=O)Nc4ccc(C(F)F)cc45)cnc32)C1 [Compound 350, 5-(difluoromethyl)-1′-[2-({1-[(cis)-3-hydroxy-3-methylcyclobutyl]-1H-pyrrolo[2,3-b]pyridin-5-yl}oxy)ethyl]-1,2-dihydrospiro[indole-3,4′-piperidin]-2-one]
AC50: 113 nM

C[C@]1(O)C[C@@H](n2cnc3cc(OCCN4CCC5(CC4)C(=O)Nc4ccc(Cl)cc45)cc(C(F)(F)F)c32)C1 [Compound 352, 5-chloro-1′-[2-({1-[(cis)-3-hydroxy-3-methylcyclobutyl]-7-(trifluoromethyl)-1H-1,3-benzodiazol-5-yl}oxy)ethyl]-1,2-dihydrospiro[indole-3,4′-piperidin]-2-one]
AC50: 597 nM

C[C@]1(O)C[C@@H](N2C(=O)NCc3cc(OCCN4CCC5(CC4)C(=O)Nc4ccc(Cl)cc45)cnc32)C1 [Compound 356, 5-chloro-1′-[2-({2-oxo-1-[(cis)-3-hydroxy-3-methylcyclobutyl]-1H,2H,3H,4H-pyrido[2,3-d]pyrimidin-6-yl}oxy)ethyl]-1,2-dihydrospiro[indole-3,4′-piperidin]-2-one]
AC50: 2490 nM

CC(C)(O)c1ncc(OCCN2CCC3(CC2)C(=O)Nc2ccc(Cl)cc23)cc1C(F)(F)F [Compound 371, 5-chloro-1′-(2-{[6-(2-hydroxypropan-2-yl)-5-(trifluoromethyl)pyridin-3-yl]oxy}ethyl)-1,2-dihydrospiro[indole-3,4′-piperidin]-2-one]
AC50: 504 nM

C[C@]1(O)C[C@@H](n2c(=O)oc3cc(OCCN4CCC5(CC4)C(=O)Nc4ccc(Cl)cc45)cnc32)C1 [Compound 394, 5-chloro-1′-[2-({2-oxo-3-[(cis)-3-hydroxy-3-methylcyclobutyl]-2H,3H-[1,3]oxazolo[4,5-b]pyridin-6-yl}oxy)ethyl]-1,2-dihydrospiro[indole-3,4′-piperidin]-2-one]
AC50: 250 nM

O=C1Nc2ccc(Cl)cc2C12CCN(CCOc1cnc(N3CC4(CC(O)C4)C3)nc1)CC2 [Compound 396, 5-chloro-1′-{2-[(2-{6-hydroxy-2-azaspiro[3.3]heptan-2-yl}pyrimidin-5-yl)oxy]ethyl}-1,2-dihydrospiro[indole-3,4′-piperidin]-2-one]
AC50: 531 nM

CCC1(O)CN(c2ncc(OCCN3CCC4(CC3)C(=O)Nc3ccc(Cl)cc34)cn2)C1 [Compound 397, 5-chloro-1′-(2-{[2-(3-ethyl-3-hydroxyazetidin-1-yl)pyrinlidin-5-yl]oxy}ethyl)-1,2-dihydrospiro[indole-3,4′-piperidin]-2-one]
AC50: 416 nM

CC(CO)(c1ncc(OCCN2CCC3(CC2)C(=O)Nc2ccc(Cl)cc23)cc1C(F)(F)F)S(C)(=O)=O (centres unmarked) [Compound 401, 5-chloro-1′-(2-{[6-(1-hydroxy-2-methanesulfonylpropan-2-yl)-5-(trifluoromethyl)pyridin-3-yl]oxy}ethyl)-1,2-dihydrospiro[indole-3,4′-piperidin]-2-one]
AC50: 603 nM

C[C@]1(O)C[C@@H](n2ccc3cc(OCCN4CCC5(CC4)C(=O)Nc4ccc(C#N)cc45)cnc32)C1 [Compound 410, 2-oxo-1′-[2-({1-[(cis)-3-hydroxy-3-methylcyclobutyl]-1H-pyrrolo[2,3-b]pyridin-5-yl}oxy)ethyl]-1,2-dihydrospiro[indole-3,4′-piperidine]-5-carbonitrile]
AC50: 623 nM

CC(C)(O)c1ncc(OCCN2CCC3(CC2)C(=O)Nc2ccc(C#N)cc23)cc1C(F)(F)F [Compound 411, 1′-(2-{[6-(2-hydroxypropan-2-yl)-5-(trifluoromethyl)pyridin-3-yl]oxy}ethyl)-2-oxo-1,2-dihydrospiro[indole-3,4′-piperidine]-5-carbonitrile]
AC50: 436 nM

[2H]C([2H])(Oc1cnc2c(c1)CCC(=O)N2[C@H]1C[C@@](C)(O)C1)C([2H])([2H])N1CCC2(CC1)C(=O)Nc1ccc(Cl)cc12 [Compound 426, 5-chloro-1′-[2-({7-oxo-8-[(cis)-3-hydroxy-3-methylcyclobutyl]-5,6,7,8-tetrahydro-1,8-naphthyridin-3-yl}oxy)(1,1,2,2-^2H4)ethyl]-1,2-dihydrospiro[indole-3,4′-piperidin]-2-one]
AC50: 597 nM
